Test results: ChEMBL document CHEMBL5465560, “Selectivity Literature for EUbOPEN Chemogenomic Library” (2024)
Blank lines part the entries; values can stand above or below the compound they belong to.

Key:
[1] = molecular target: Cyclin-dependent kinase 3 (Homo sapiens) (UniProt Q00526); conditions: at 10 µM
[2] = molecular target: Receptor-type tyrosine-protein kinase FLT3 (Homo sapiens) (UniProt P36888); conditions: at 10 µM
[3] = molecular target: T1, Histone-lysine N-methyltransferase SMYD3 (Homo sapiens) (UniProt Q9H7B4); assay: Selectivity interaction (Transferase panel (protein, RNA, and DNA methyltransferases. and EP300 (acetyltransferase))) EUB0000270b SMYD3
T1 sequence (whole entry): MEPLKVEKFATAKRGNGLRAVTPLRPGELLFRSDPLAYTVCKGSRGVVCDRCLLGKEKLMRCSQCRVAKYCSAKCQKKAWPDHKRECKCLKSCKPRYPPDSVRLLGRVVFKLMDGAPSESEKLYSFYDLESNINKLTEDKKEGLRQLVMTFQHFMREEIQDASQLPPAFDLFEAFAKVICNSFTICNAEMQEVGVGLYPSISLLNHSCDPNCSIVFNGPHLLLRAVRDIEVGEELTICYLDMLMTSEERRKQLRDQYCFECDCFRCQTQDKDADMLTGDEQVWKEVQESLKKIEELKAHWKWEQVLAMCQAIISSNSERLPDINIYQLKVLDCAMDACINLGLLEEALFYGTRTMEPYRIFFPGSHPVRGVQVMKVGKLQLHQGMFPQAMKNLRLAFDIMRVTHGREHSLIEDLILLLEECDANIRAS

[4] = molecular target: Tyrosine-protein kinase Lck (Homo sapiens, UniProt P06239); assay: Selectivity interaction (Kinase panel (Z-LYTE Assay)) EUB0001632a LCK; conditions: at 10 µM
Chain of Tyrosine-protein kinase Lck (P06239 2-509 limits assumed): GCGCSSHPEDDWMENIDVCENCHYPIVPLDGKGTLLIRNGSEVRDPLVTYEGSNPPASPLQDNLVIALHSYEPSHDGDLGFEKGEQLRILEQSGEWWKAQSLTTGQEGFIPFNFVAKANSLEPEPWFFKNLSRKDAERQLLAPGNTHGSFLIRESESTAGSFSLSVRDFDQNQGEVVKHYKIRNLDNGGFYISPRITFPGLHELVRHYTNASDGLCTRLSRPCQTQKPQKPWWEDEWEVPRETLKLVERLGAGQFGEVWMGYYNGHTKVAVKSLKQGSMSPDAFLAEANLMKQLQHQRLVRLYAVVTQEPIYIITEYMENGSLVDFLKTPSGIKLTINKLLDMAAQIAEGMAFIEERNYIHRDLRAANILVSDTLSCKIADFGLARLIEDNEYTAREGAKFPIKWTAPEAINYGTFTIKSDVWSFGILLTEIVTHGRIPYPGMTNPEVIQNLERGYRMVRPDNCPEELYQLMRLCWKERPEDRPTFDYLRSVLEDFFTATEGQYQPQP

[5] = molecular target: Cyclin-dependent kinase 14 (Homo sapiens) (UniProt O94921); conditions: at 10 µM
Chain of Cyclin-dependent kinase 14 (Homo sapiens) (O94921 whole entry): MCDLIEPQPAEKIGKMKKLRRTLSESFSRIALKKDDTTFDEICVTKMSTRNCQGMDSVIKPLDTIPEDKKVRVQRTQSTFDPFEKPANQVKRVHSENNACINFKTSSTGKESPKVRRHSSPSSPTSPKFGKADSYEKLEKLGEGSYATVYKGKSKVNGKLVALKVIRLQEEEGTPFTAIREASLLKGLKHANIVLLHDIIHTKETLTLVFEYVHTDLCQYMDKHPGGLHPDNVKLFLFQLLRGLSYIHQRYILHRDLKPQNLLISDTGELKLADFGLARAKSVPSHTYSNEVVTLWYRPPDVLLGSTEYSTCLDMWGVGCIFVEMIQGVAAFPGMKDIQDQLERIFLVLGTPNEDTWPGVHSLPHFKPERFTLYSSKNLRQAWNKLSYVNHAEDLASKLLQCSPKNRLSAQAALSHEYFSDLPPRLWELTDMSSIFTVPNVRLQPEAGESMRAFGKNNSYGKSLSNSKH

[6] = molecular target: T2, Serine/threonine-protein kinase mTOR (Homo sapiens, UniProt P42345); assay: Selectivity interaction (KinomeScan (DiscoverX)) EUB0000595a MTOR; conditions: at 10 µM
[7] = molecular target: T2, Serine/threonine-protein kinase mTOR; assay: Selectivity interaction (ActivX KiNativ screen (ex vivo kinase selectivity in human PBMCs)) EUB0001619a MTOR; format: cell-based; conditions: PBMC, at 1 µM
[8] = molecular target: Ribosomal protein S6 kinase alpha-3 (Homo sapiens, UniProt P51812); assay: Selectivity interaction (ActivX KiNativ screen (ex vivo kinase selectivity in human PBMCs)) EUB0001619a RPS6KA3; format: cell-based; conditions: PBMC, at 1 µM
Chain of Ribosomal protein S6 kinase alpha-3 (P51812 whole entry, canonical isoform): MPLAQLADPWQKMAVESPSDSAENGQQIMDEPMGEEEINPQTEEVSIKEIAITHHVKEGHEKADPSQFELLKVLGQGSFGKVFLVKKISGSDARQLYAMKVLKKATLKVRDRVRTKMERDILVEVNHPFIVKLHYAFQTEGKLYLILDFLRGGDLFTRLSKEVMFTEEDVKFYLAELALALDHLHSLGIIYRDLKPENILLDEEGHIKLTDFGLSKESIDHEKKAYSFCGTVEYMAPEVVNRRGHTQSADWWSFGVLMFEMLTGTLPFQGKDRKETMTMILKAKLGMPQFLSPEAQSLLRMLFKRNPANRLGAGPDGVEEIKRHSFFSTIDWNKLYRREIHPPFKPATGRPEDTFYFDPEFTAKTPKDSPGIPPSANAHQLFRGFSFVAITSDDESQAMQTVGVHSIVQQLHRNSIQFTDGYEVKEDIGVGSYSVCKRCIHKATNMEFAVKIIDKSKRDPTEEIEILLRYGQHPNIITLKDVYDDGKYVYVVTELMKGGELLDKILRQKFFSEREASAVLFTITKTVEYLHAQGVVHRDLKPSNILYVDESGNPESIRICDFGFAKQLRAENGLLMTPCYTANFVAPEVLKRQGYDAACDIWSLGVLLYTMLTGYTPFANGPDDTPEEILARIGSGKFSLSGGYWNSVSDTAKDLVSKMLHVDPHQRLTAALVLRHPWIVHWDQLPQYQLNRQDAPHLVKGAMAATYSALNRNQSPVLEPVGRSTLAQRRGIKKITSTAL

[9] = molecular target: Casein kinase I isoform gamma-1 (Homo sapiens) (UniProt Q9HCP0); assay: Selectivity interaction (SelectScreen profiling (Invitrogen)) EUB0000607a CSNK1G1; conditions: at 2 µM
Chain of Casein kinase I isoform gamma-1 (Homo sapiens) (Q9HCP0 whole entry, looked up, canonical isoform): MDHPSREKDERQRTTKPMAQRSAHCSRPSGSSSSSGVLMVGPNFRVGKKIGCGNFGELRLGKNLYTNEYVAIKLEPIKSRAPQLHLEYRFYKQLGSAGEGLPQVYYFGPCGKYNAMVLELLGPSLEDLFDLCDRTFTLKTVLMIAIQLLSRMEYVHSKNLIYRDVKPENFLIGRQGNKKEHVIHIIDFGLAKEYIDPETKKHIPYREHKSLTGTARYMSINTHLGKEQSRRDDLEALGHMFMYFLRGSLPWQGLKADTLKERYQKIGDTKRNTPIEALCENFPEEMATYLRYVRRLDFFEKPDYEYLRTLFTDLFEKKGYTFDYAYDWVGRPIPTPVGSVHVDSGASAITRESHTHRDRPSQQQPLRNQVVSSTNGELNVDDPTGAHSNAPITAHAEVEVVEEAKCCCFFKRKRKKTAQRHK

[10] = molecular target: Phosphatidylinositol 4,5-bisphosphate 3-kinase catalytic subunit gamma isoform (Homo sapiens) (UniProt P48736); assay: Selectivity interaction (Kinase panel (KiNativ target engagement assay in Jurkat cells)) EUB0001635a PIK3CG; format: cell-based; conditions: at 1 µM
Chain of Phosphatidylinositol 4,5-bisphosphate 3-kinase catalytic subunit gamma isoform (Homo sapiens) (P48736 whole entry, looked up, canonical isoform): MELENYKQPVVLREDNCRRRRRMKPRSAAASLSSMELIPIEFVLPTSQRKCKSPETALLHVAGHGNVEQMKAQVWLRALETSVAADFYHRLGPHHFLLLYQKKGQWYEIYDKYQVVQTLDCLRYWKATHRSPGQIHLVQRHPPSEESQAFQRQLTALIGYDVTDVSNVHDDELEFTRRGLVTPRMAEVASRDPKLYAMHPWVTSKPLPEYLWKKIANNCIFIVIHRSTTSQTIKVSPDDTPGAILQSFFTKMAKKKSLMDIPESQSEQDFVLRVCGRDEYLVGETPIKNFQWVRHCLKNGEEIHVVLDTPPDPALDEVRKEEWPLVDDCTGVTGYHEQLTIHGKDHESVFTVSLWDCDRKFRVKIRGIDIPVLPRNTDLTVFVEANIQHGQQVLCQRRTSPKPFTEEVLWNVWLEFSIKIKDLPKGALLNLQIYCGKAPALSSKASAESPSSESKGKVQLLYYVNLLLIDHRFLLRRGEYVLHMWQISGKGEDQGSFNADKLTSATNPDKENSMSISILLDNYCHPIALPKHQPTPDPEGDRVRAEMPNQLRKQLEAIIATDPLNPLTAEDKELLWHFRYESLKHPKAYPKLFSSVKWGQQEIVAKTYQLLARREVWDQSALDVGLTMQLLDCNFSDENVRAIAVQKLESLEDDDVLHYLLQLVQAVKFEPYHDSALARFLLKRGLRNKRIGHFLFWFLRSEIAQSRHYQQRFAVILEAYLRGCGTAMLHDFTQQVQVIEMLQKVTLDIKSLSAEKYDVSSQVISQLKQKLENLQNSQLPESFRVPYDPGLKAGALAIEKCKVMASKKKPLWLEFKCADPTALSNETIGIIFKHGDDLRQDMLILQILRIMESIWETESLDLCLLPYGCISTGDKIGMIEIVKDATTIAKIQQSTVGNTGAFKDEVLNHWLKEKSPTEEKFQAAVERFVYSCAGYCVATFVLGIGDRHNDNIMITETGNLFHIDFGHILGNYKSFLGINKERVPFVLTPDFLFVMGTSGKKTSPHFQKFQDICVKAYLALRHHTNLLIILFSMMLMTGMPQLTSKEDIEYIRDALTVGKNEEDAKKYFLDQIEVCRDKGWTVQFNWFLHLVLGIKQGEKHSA

[11] = molecular target: T3, Cyclin-G-associated kinase (Homo sapiens) (UniProt O14976); assay: Selectivity interaction (Kinase panel (DSF assay)) EUB0001558a GAK
T3 sequence (whole entry): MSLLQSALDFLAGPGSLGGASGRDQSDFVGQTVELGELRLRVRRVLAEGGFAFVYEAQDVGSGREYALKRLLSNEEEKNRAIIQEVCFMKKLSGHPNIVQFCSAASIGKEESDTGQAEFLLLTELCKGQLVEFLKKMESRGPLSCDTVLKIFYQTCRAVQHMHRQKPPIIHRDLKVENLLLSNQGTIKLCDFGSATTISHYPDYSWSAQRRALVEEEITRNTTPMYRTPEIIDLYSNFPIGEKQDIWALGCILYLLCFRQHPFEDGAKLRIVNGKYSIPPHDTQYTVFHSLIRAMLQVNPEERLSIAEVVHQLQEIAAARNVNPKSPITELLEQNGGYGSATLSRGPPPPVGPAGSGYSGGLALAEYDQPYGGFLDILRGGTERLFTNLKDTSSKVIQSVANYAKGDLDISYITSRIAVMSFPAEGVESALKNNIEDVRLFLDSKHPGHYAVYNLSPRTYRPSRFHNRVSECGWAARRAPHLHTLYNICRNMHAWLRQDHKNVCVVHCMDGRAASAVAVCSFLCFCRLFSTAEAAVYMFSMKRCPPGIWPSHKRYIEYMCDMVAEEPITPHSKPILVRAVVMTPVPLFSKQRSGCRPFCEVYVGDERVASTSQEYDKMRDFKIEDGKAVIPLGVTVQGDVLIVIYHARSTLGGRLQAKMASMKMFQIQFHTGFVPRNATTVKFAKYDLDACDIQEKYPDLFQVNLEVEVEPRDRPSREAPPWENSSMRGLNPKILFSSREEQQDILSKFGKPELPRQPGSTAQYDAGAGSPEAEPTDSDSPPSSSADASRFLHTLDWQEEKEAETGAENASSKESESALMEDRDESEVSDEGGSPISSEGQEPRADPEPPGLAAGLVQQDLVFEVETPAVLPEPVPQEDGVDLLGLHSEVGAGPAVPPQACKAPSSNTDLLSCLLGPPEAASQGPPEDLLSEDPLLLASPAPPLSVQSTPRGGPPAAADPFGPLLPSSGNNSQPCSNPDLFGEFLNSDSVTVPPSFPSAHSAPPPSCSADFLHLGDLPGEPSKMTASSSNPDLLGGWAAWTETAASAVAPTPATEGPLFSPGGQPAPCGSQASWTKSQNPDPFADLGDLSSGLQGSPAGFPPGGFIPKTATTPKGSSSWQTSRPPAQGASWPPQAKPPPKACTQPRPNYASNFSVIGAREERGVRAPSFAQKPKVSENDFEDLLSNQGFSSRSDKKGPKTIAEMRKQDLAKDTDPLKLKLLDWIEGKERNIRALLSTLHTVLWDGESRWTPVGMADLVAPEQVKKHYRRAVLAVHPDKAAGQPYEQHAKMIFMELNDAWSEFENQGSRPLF

Chain of Receptor-type tyrosine-protein kinase FLT3 (Homo sapiens) (P36888 whole entry): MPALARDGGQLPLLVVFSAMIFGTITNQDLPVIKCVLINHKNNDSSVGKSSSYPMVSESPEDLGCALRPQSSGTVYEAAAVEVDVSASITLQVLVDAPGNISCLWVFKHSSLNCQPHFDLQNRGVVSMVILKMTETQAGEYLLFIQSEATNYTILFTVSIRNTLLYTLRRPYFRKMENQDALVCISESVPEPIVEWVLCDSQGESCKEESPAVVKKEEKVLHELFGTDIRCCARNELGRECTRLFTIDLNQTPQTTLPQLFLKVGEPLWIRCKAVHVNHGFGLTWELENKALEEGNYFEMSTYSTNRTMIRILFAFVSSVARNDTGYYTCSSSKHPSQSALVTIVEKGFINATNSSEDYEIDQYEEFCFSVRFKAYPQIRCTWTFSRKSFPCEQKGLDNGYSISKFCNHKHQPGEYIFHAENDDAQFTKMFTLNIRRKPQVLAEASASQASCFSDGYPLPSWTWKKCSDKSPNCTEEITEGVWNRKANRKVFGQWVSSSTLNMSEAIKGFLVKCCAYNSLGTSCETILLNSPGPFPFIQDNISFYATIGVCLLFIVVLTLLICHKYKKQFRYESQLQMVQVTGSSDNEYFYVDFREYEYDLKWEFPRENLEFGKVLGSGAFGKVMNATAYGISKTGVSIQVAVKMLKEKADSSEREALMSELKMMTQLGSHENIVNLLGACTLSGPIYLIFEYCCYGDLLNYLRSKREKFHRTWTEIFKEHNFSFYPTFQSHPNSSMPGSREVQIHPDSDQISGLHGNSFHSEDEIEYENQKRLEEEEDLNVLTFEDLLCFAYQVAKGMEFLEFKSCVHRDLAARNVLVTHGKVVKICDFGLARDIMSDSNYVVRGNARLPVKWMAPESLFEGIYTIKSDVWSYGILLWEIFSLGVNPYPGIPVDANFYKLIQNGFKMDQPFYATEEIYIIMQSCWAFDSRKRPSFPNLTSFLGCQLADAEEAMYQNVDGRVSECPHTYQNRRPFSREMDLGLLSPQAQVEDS
Chain of Cyclin-dependent kinase 3 (Homo sapiens) (Q00526 whole entry, looked up): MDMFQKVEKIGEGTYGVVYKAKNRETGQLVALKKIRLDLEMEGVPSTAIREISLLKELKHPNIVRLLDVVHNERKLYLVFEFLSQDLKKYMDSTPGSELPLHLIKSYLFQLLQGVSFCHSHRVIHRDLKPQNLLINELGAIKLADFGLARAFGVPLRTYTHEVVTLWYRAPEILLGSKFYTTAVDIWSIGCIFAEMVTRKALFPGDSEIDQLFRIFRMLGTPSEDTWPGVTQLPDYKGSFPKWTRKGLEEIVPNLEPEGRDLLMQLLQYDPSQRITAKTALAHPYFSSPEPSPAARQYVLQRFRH

SMILES: Cc1cc([C@@H](C)Nc2ccccc2C(=O)O)c2nc(N3CCOCC3)cc(=O)n2c1 [AZD-6482]
% of control [1]: 100%
% of control [2]: 13%

% activity ([3]; at 1 µM): > 90%
% activity ([3]; at 10 µM): > 80%
SMILES: Cc1cc(CN)cc(C)c1-c1ncn(C)c1-c1cncn1C

% of control [4]: 11.9%
SMILES: Cn1cc(-n2cnc3c(NCc4nc5cc(Cl)c(Cl)cc5[nH]4)nc(N4CCOCC4)nc32)cn1

% of control [5]: 100%
SMILES: CCN(CC)CCCCNc1ncc2cc(-c3cc(OC)cc(OC)c3)c(NC(=O)NC(C)(C)C)nc2n1

SMILES: COCC(=O)NC/C=C/c1ccc2ncnc(Nc3ccc(Oc4ccc(C)nc4)c(C)c3)c2c1 [CP-724714]
% of control [6]: 79%

SMILES: N#Cc1cccc(-c2c[nH]c3ncnc(N4CCOCC4)c23)c1
% of inhibition [7]: 10%
% of inhibition [8]: -11%

SMILES: CNC(=O)Nc1ccc(-c2nc(N3CC4CCC(C3)O4)c3cnn(C4CCC5(CC4)OCCO5)c3n2)cc1
% of inhibition [9]: -2%

SMILES: C=CC(=O)Nc1ccc(C(=O)Nc2[nH]nc3c2CN(C(=O)N[C@H](CN(C)C)c2ccccc2)C3(C)C)cc1
% of engagement [10]: -3.7%

SMILES: CC(C)(O)[C@H](F)CN1Cc2cc(NC(=O)c3cnn4cccnc34)c(N3CCOCC3)cc2C1=O
dTM [11]: 2.3 K
